Results taken from US9580430B2, “9H-pyrimido[4,5-B]indoles and related analogs as BET bromodomain inhibitors” (THE REGENTS OF THE UNIVERSITY OF MICHIGAN, priority 2014, dated 2017).

Experiments:
[1] = tested on: VCaP prostate cancer cells; assay: Cell growth inhibition, VCaP prostate cancer cells (Cell-Titer GLO); format: cell-based; conditions: 8 days; FIG. 22
Method: For prostate cancer cell lines, VCaP prostate cancer cells were grown in DMEM with Glutamax (Gibco) supplemented with 10% FBS (Invitrogen) in 5% CO2 cell culture incubator. All cell lines were tested and found to be free of mycoplasma contamination. Cells were seeded in 96-well plates at 2,000-10,000 cells per well (optimum density for growth) in a total volume of […] media containing 10% FBS. Serially diluted compounds in […] media were added to the cells 12 h later. […] The values were normalized and IC50 was calculated using GraphPad Prism software.
Cells were seeded in 96-well plates at 2000-10,000 cells/well (optimum density for growth) in a total volume of 100 μl media containing 10% FBS. Serially diluted compounds in 100 μl media were added to the cells 12 h later. Following 96 h. incubation, cell viability was assessed by Cell-Titer GLO (Promega). The values were normalized and IC50 was calculated using GraphPad Prism software. […] After 12 days cells were fixed with methanol, stained with crystal violet and photographed. For colorimetric assays, the stained wells were treated with 500 μl 10% acetic acid and the absorbance was measured at 560 nm using a spectrophotometer.

VCaP xenograft model = assay: Spontaneous metastasis in the VCaP xenograft model (human Alu qPCR); format: in vivo, mice; conditions: femur, liver and spleen; JQ1 50 mg/kg, MDV3100 10 mg/kg
Method: (§1) Four week-old male SCID C.B17 mice were procured from a breeding colony at University of Michigan. All procedures involving mice were approved by the University Committee on Use and Care of Animals (UCUCA) at the University of Michigan and conform to all regulatory standards. Mice were anesthetized using 2% Isoflurane (inhalation) and 2×10^6 VCaP prostate cancer cells suspended in 100 μl of PBS with 50% Matrigel (BD Biosciences) were implanted subcutaneously into the dorsal flank on both sides of the mice. […] Growth in tumor volume was recorded using digital calipers and tumor volumes were estimated using the formula (π/6) (L×W^2), where L=length of tumor and W=width. Loss of body weight during the course of the study was also monitored. At the end of the studies mice were sacrificed and tumors extracted and weighed. Additionally, femur bone marrow, liver and spleen were harvested to examine spontaneous metastasis by detecting human-Alu sequence. […] All procedures involving mice were approved by the University Committee on Use and Care of Animals (UCUCA) at the University of Michigan and conform to all regulatory standards.

VCaP tumor xenograft = tested on: VCaP tumor xenograft
Method: as §1

AR = assay: ChIP-seq of AR in DHT-stimulated VCaP cells; format: cell-based; conditions: DHT 10 nM plus JQ1 500 nM, MDV3100 10 μM or Bicalutamide 25 μM, FIG. 17
Method: (§2) The ChIP assays for BRD2, BRD3, BRD4, AR, RNA PolII, ERG and H3K27ac were performed using HighCell ChIP kit (Diagenode) according to manufacturer's protocol. […] Next, cells were cross-linked for 10 min. with 1% formaldehyde. […] Chromatin equivalent to 5×10^6 cells were used for ChIP using different antibodies. ChIP DNA was isolated (IPure Kit, Diagenode) from samples by incubation with the antibody at 4° C. overnight followed by wash and reversal of cross-linking. The ChIP-seq sample preparation for sequencing was performed according to the manufacturer's instructions (Illumina). […] A single A-base was added to fragment ends by Klenow fragment (3′ to 5′ exo minus; NEB) followed by ligation of Illumina adaptors (Quick ligase, NEB). The adaptor-modified DNA fragments were enriched by PCR using the Illumina Barcode primers and Phusion DNA polymerase (NEB). PCR products were size selected using 3% NuSieve agarose gels (Lonza) followed by gel extraction using QIAEX II reagents (QIAGEN). Libraries were quantified with the Bioanalyzer 2100 (Agilent) and sequenced on the Illumina HiSeq 2000 Sequencer (100 nucleotide read length).
For enrichment plots shown in FIGS. 17, 19 and 20, identified peaks for each sample are centered by peak summit and average coverage per million was counted within 1500 bp relative to the peak center.

BRD2/3/4 = assay: ChIP-seq of BRD2/3/4 in VCaP cells; format: cell-based; conditions: 500 nM, 12 h
Method: as §2

With `CNC(=O)c1ccc(N2C(=S)N(c3ccc(C#N)c(C(F)(F)F)c3)C(=O)C2(C)C)cc1F` [MDV3100, enzalutamide] the “VCaP cell viability in vitro” value [1] was “Marginal cell death”, the spontaneous metastasis (VCaP xenograft model) was “evidence of metastases in femur and liver” and the tumor volume/weight (VCaP tumor xenograft; VCaP tumor-bearing mice, JQ1 50 mg/kg, MDV3100 10 mg/kg, 5 days/week, FIGS. 23-25) was “less pronounced effect”. For the same compound, the tolerability (VCaP tumor xenograft; mouse, in vivo) was “well tolerated” and the “recruitment of AR to target loci” value (AR) was “markedly attenuated”.

For `CCNC(=O)C[C@@H]1N=C(c2ccc(Cl)cc2)c2cc(OC)ccc2-n2c(C)nnc21` [I-BET762], the “recruitment of BRD2/3/4 to the chromatin” value (BRD2/3/4) was “reduction in the recruitment”.
